Laboratory results: publication PMC7239764 (The FEBS journal, 2019)
Several values for one entry are separate records, joined by “and”; a condition that tells them apart may be missing. Equal values may be shown once. Read-outs that look alike come from different tables or passages of the source.

Columns and labels:
[1] = target: T1, BaPDH (prephenate dehydrogenase from Bacillus anthracis) (Bacillus anthracis, UniProt Q81P63); format: binding
[2] = target: T1, BaPDH (prephenate dehydrogenase from Bacillus anthracis); experiment: biochemical; format: binding
[3] = target: T1, BaPDH (prephenate dehydrogenase from Bacillus anthracis); experiment: biochemical; format: biochemical; conditions: for Km: 25°C, pH 7.5
[4] = target: arogenate dehydrogenase from cyanobacteria Synechocystis sp.; conditions: cited from earlier work
[5] = target: AaPDH (prephenate dehydrogenase from Aquifex aeolicus); conditions: cited from earlier work

T1 sequence (Q81P63 1-378): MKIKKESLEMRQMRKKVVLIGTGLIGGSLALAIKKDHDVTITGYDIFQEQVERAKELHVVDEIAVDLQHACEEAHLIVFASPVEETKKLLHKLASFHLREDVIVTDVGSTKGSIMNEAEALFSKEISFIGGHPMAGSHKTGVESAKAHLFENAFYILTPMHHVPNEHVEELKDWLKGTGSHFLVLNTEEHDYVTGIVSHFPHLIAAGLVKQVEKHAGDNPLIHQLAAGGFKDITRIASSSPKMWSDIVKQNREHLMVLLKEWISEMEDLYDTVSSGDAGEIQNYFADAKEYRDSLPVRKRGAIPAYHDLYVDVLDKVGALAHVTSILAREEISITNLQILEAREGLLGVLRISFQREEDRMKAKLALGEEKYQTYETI

SMILES | Increase in Tm with the addition of the ligand(s) [1] | Tm [1] | Binding sites per protein dimer (N) [2] | Km [3] | also measured
NC(=O)C1=CN([C@@H]2O[C@H](COP(=O)(O)OP(=O)(O)OC[C@H]3O[C@@H](n4cnc5c(N)ncnc54)[C@H](O)[C@@H]3O)[C@@H](O)[C@H]2O)C=CC1 [NADH] | do not significantly change and ns | 43 ± 2 °C |  |  | 
NC(=O)C1=CN([C@@H]2O[C@H](COP(=O)(O)OP(=O)(O)OC[C@H]3O[C@@H](n4cnc5c(N)ncnc54)[C@H](OP(=O)(O)O)[C@@H]3O)[C@@H](O)[C@H]2O)C=CC1 [NADPH] | do not significantly change and ns | 40 ± 1 °C |  |  | 
NC(=O)c1ccc[n+]([C@@H]2O[C@H](COP(=O)([O-])OP(=O)(O)OC[C@H]3O[C@@H](n4cnc5c(N)ncnc54)[C@H](OP(=O)(O)O)[C@@H]3O)[C@@H](O)[C@H]2O)c1 [NADP^+] | do not significantly change and ns | 41 ± 1 °C |  |  | Kd [2]: No detectable binding
NC(=O)c1ccc[n+]([C@@H]2O[C@H](COP(=O)([O-])OP(=O)(O)OC[C@H]3O[C@@H](n4cnc5c(N)ncnc54)[C@H](O)[C@@H]3O)[C@@H](O)[C@H]2O)c1 [NAD^+] | does not impart a significant change and ns | 41 ± 1 °C | 0.90 ± 0.01 | 237 ± 44 µM | 
N[C@@H](Cc1ccc(O)cc1)C(=O)O [Tyrosine, L-tyrosine] |  | 51 ± 1 °C | 1.002 ± 0.001 and 0.928 ± 0.003 |  | Ki [4]: 70 µM; Ki [5]: 15.9 ± 1.3 µM; Kd ([2]; Kd): 0.64 µM and 0.37 µM; Ki [3]: 1.47 ± 0.07 µM; mode of inhibition [3]: non-competitive inhibition
O=C(O)C(=O)CC1(C(=O)O)C=CC(O)C=C1 (stereo not shown) [prephenate] |  |  |  | 58 ± 9 µM | 
